Experimental data published in ChEMBL document CHEMBL1949588, “Synthesis of [¹¹C]uric acid, using [¹¹C]phosgene, as a possible biomarker in PET imaging for diagnosis of gout” (Bioorg Med Chem Lett, 2012).

Experiments:
[1] = Drug uptake in potassium oxonate treated Sprague-Dawley rat hyperuricemic model limb at 22 to 30 MBq, iv after 65 to 70 mins by PET analysis; format: ADME, organism-based; conditions: in vivo
Blood [2] = test: Metabolic stability in Sprague-Dawley rat blood assessed as formation of [11C][…] metabolite at 22 to 30 MBq, iv after 30 mins by radiometric HPLC analysis; format: ADME, organism-based; conditions: in vivo, 0.5 h
Blood [3] = test: Drug uptake in potassium oxonate treated Sprague-Dawley rat hyperuricemic model blood at 22 to 30 MBq, iv after 60 mins by gamma counting; conditions: in vivo, 1 h
Blood [4] = test: Ratio of drug uptake in potassium oxonate treated Sprague-Dawley rat hyperuricemic model blood at 22 to 30 MBq, iv after 65 to 70 mins to drug uptake in normal rat; format: ADME, organism-based; conditions: in vivo
[5] = Metabolic stability in potassium oxonate treated Sprague-Dawley rat hyperuricemic model blood assessed as compound remaining at 22 to 30 MBq, iv after 30 mins by radiometric HPLC analysis; format: ADME, organism-based; conditions: read-out: Stability
Rattus norvegicus = test: Ratio of drug uptake in potassium oxonate treated Sprague-Dawley rat hyperuricemic model at 22 to 30 MBq, iv after 60 mins to drug uptake in normal rat; format: ADME, organism-based; conditions: in vivo, 1 h

Drug uptake [1]: Active
Stability (Blood [2]): Unstable
Drug uptake (Blood [3]): 0.57 %ID
Ratio (Blood [4]): 1.6
remaining at 0.5 h [5]: 100%
Ratio (Rattus norvegicus): 1.7
Structure (SMILES): O=c1[nH]c(=O)c2[nH][11c](=O)[nH]c2[nH]1
